Experimental data as given in patent publication US20250145632A1, “Pyrimidine Heterocyclic Compound, Preparation Method Thereof and use Thereof in Medicine” (INSILICO MEDICINE IP LIMITED, priority 2021, published 2025).

What was measured:
[1] = In-vivo pharmacokinetic experiment in male beagles; set-up: species or system dog; settings: beagle
Protocol: Experimental method and conditions: male beagles with weight of 8-11 kg were purchased from Jiangsu Marshall Biotechnology Co., Ltd. The to-be-tested compound was administered to 3 dogs at 0.2 mg/kg or 1.0 mg/kg (solvent: 2% DMSO+10% Kolliphor HS 15+88% (6.818% of hydroxypropyl-beta-cyclodextrin aqueous solution), 0.2 mg/mL or 1.0 mg/mL) by intravenous injection, and administered to 3 dogs at 2 mg/kg (solvent: 5% DMSO+95% (10% hydroxypropyl-beta-cyclodextrin salt aqueous solution, 0.4 mg/mL) by oral intragastric administration. Head vein blood sampling was carried out 5 min, 15 min, 30 min, 1 h, 2 h, 4 h, 8 h and 24 h after the administration, and 500 μL of each sample was collected. After collection, the samples were placed on ice, and plasma was centrifugally separated within 15 min for testing. The concentration of the medicine in the plasma was detected by liquid chromatography-tandem mass spectrometry (LC/MS/MS), and pharmacokinetic parameters were calculated with Phoenix WinNonlin software when the concentration was measured.

[2] = system: OVCAR-3 human ovarian adenocarcinoma cells; test: OVCAR-3 tumor cell proliferation inhibition (CellTiter-Glo); type: cell-based; settings: 3 d culture
Protocol: (§1) OVCAR-3 was purchased from ATCC; article No.: HTB-161; RPMI1640 was purchased from Gibco; article No.: 11875-093; Pancreatin (including EDTA) was purchased from Gibco; article No.: 25200-072; FBS was purchased from Gibco; Article No.: 10091-148; CellTiter-Glo was purchased from Promega; article No.: G7573; Bovine insulin was purchased from absin; article No.: abs9169; DMSO was purchased from VWR AMRESCO; article No.: 0231-500ML; Staurosporine was purchased from Selleck; article No.: S1421; a cell counter was purchased from CHEMOMETEC; model: NC-200; and a microplate reader was purchased from PerkinElmer; Model: Envison.
(§2) OVCAR-3 was human ovarian adenocarcinoma cells cultured in an RPMI-1640 culture medium containing 20% FBS and 0.01 mg/mL of Bovine insulin. Cells in logarithmic phase were taken, and the cells were subjected to digesting, collecting and counting with pancreatin-EDTA, 2000 OVCAR-3 cells/well were inoculated in a 384-well cell plate, and were cultured in 5% CO2 overnight. A 1000× compound stock solution with 3.16 times of gradient concentration was prepared with DMSO, and was diluted 100 times to 10× compound stock solution with a culture medium, and 10× compound stock solution was added into each cell culture well on the next day after cell inoculation, wherein the final concentration was 1×, and the DMSO content was 0.1%. The cell group was treated with DMSO as an experimental control (control), and the cell group was treated with 5 μM of Staurosporine as a blank control (blank).

[3] = system: HCC70 human breast ductal cancer cells; test: HCC70 tumor cell proliferation inhibition (CellTiter-Glo); type: cell-based; settings: 3 d culture
Protocol: as §1, with “HCC70” for “OVCAR-3”, “CRL-2315;” for “HTB-161;”, “article” for “Article”, “10099-141C;” for “10091-148;”, “G7573;” for “G7573; Bovine insulin was purchased from absin; article No.: abs9169;”
as §2, with “HCC70” for “OVCAR-3”, “breast ductal cancer” for “ovarian adenocarcinoma”, “10% FBS.” for “20% FBS and 0.01 mg/mL of Bovine insulin.”

[4] = male, dog, plasma, intravenous injection 1.0 mg/kg
[5] = male, dog, plasma, oral administration 2 mg/kg

| Structure (SMILES) | IC50 [2] | IC50 [3] | other results |
| --- | --- | --- | --- |
| CC1(C)CC[C@H](Nc2ncc(C(F)(F)F)c(-c3c[nH]c4c(P(C)(C)=O)c(C#N)ccc34)n2)CN1 [Compound 101, reference compound] | – | – | CL ([1]; intravenous injection 1.0 mg/kg): 14.5 mL/min/kg; Cmax ([1]; oral administration 2 mg/kg): 123 ng/mL; F(%) ([1]; oral administration 2 mg/kg): 65.8%; AUC(0-inf) [1, 4]: 1230 ng·h/mL; half-life [1, 4]: 6.88 h; Vd ([1]; male, dog, plasma, intravenous injection 1.0 mg/kg, read-out: Vss): 7.57 L/kg; AUC(0-inf) [1, 5]: 1590 ng·h/mL; half-life [1, 5]: 6.61 h |
| CN1CCOCCN(C)[C@H]2CC[C@@H](C2)Nc2ncc(C(F)(F)F)c(n2)-c2ccc3c(c[nH]c3n2)C1=O [Compound Z91, (4^1S,4^3S)-5,11-dimethyl-2^5-(trifluoromethyl)-1^1H-8-oxa-3,5,11-triaza-1(3,6)-pyrrolo[2,3-b]pyridina-2(4,2)-pyrimidina-4(1,3)-cyclopentanacyclododecaphan-12-one] | 811 nM | 438 nM | – |
| CN1CC(F)CCNC2CCC(C2)Nc2ncc(C(F)(F)F)c(n2)-c2c[nH]c3c(P(C)(C)=O)c(ccc23)C1=O [Compound Z77, (4^1S,4^3S,8S)-17-(dimethylphosphoryl)-8-fluoro-10-methyl-2^5-(trifluoromethyl)-1′H-3,5,10-triaza-1(3,6)-indola-2(4,2)-pyrimidina-4(1,3)-cyclopentanacycloundecaphan-11-one] | 11.8 nM | 9.87 nM | – |
| CN1CCCCNC2CCC(C2)Nc2ncc(C(F)(F)F)c(n2)-c2c[nH]c3c(P(C)(C)=O)c(ccc23)C1=O (stereo not shown) [Compound Z62, (41 S,4^3S)-1^7-(dimethylphosphoryl)-10-methyl-2^5-(trifluoromethyl)-1^1H-3,5,10-triaza-1(3,6)-indola-2(4,2)-pyrimidina-4(1,3)-cyclopentanacycloundecaphan-11-one] | 15.9 nM | 24.6 nM | – |
| CN1CCC(F)CN(C)C2CC[C@@H](C2)Nc2ncc(C(F)(F)F)c(n2)-c2c[nH]c3c(P(C)(C)=O)c(ccc23)C1=O (stereo partly shown) [Compound Z90, (4^1S)-1^7-(dimethylphosphoryl)-7-fluoro-5,10-dimethyl-2^5-(trifluoromethyl)-1^1H-3,5,10-triaza-1(3,6)-indola-2(4,2)-pyrimidina-4(1,3)-cyclopentanacycloundecaphan-11-one] | > 10000 nM | > 10000 nM | – |
| CN1CC(F)(F)CCN(C)C2CCC(C2)Nc2ncc(C(F)(F)F)c(n2)-c2ccc3c(c[nH]c3n2)C1=O (stereo not shown) [Compound Z93, (4^1S,4^3S)-8,8-difluoro-5,10-dimethyl-2^5-(trifluoromethyl)-1^1H-3,5,10-triaza-1(3,6)-pyrrolo[2,3-b]pyridine-2(4,2)-pyrimidina-4(1,3)-cyclopentanacycloundecaphan-11-one] | > 10000 nM | 5210 nM | – |
| CN1C[C@H](F)CCN[C@H]2CC[C@@H](C2)Nc2ncc(C(F)(F)F)c(n2)-c2c[nH]c3c(P(C)(C)=O)c(ccc23)C1=O (single isomer, unassigned) [Compound Z76] | 31.5 nM | 21.9 nM | – |
| CP(C)(=O)c1c2ccc3c(c[nH]c13)-c1nc(ncc1C(F)(F)F)N[C@H]1CC[C@@H](C1)NCC[C@@H](F)CNC2=O (single isomer, unassigned) [Compound Z68-1] | 35.8 nM | 10.3 nM | – |
| O=c1cc2c(c[nH]1)-c1ccc3c(c[nH]c3c1)-c1nc(ncc1C(F)(F)F)N[C@H]1CC[C@@H](C1)NCCCC2 [Compound Z74] | – | – | IC50 ([2]; Homo sapiens, OVCAR-3, 72 h): 3460 nM; IC50 ([3]; Homo sapiens, HCC70, 72 h): 1250 nM |
| CN1CC(F)(F)CCNC2CC[C@@H](C2)Nc2ncc(C(F)(F)F)c(n2)-c2c[nH]c3c(P(C)(C)=O)c(ccc23)C1=O [Compound Z66, (41 S,4^3S)-1^7-(dimethylphosphoryl)-8,8-difluoro-10-methyl-2^5-(trifluoromethyl)-1^1H-3,5,10-triaza-1(3,6)-indola-2(4,2)-pyrimidina-4(1,3)-cyclopentanacycloundecaphan-11-one] | 21.2 nM | 10.5 nM | – |
| CN1CCC(F)(F)CN(C)C2CC[C@@H](C2)Nc2ncc(C(F)(F)F)c(n2)-c2c[nH]c3c(P(C)(C)=O)c(ccc23)C1=O [Compound Z85, (4^1S,4^3S)-1^7-(dimethylphosphoryl)-7,7-difluoro-5,10-dimethyl-2^5-(trifluoromethyl)-1^1H-3,5,10-triaza-1(3,6)-indola-2(4,2)-pyrimidina-4(1,3)-cyclopentanacycloundecaphan-11-one] | 1800 nM | 517 nM | – |
| N#Cc1c2ccc3c(c[nH]c13)-c1nc(ncc1C(F)(F)F)N[C@H]1CC[C@@H](C1)NCCCCNC2=O [Compound Z23, (4^1S,4^3S)-11-oxo-2^5-(trifluoromethyl)-1^1H-3,5,10-triaza-1(3,6)-indola-2(4,2)-pyrimidina-4(1,3)-cyclopentanacycloundecaphane-17-carbonitrile] | 135 nM | 66.6 nM | – |
| CN1CCC(F)(F)CN(C)C2CC[C@@H](C2)Nc2ncc(C(F)(F)F)c(n2)-c2c[nH]c3c(P(C)(C)=O)c(ccc23)C1=O [Compound Z86, (4^1S,4^3S)-1^7-(dimethylphosphoryl)-7,7-difluoro-5,10-dimethyl-2^5-(trifluoromethyl)-1^1H-3,5,10-triaza-1(3,6)-indola-2(4,2)-pyrimidina-4(1,3)-cyclopentanacycloundecaphan-11-one] | > 10000 nM | > 10000 nM | – |
| CN1CCC(F)CN(C)C2CC[C@@H](C2)Nc2ncc(C(F)(F)F)c(n2)-c2c[nH]c3c(P(C)(C)=O)c(ccc23)C1=O (stereo partly drawn) [Compound Z89, (41S)-1^7-(dimethylphosphoryl)-7-fluoro-5,10-dimethyl-2^5-(trifluoromethyl)-1^1H-3,5,10-triaza-1(3,6)-indola-2(4,2)-pyrimidina-4(1,3)-cyclopentanacycloundecaphan-11-one] | > 10000 nM | > 10000 nM | – |
